Where a name gives a salt, the structure may show the parent alone.
Assay: collision cross section in nitrogen (drift tube, single-field); higher = larger gas-phase ion size
[1] = ion type: [M+Na], ion source: ESI, ion mode: Positive
[2] = ion type: [M-H], ion source: ESI, ion mode: Negative
[3] = ion type: [M+], ion source: APCI, ion mode: Positive
[4] = ion type: [M+H], ion source: APCI, ion mode: Positive
[5] = ion type: [M+H], ion source: ESI, ion mode: Positive
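Note: chemical standards at 10 µM analysed by drift tube IMS-QTOF MS in about 3.95 torr nitrogen, mean of duplicate injections differing ≤1%, mass error below 10 ppm.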

Structure (SMILES) | collision cross section in nitrogen [1] [Å²] | collision cross section in nitrogen [2] [Å²] | collision cross section in nitrogen [5] [Å²] | other results
CCOCCOC(=O)C=Cc1ccc(OC)cc1 [Cinoxate] | 155.6 | – | – | –
Cc1cc(N=Nc2c(O)ccc3ccccc23)c(S(=O)(=O)O)cc1Cl [C.I. Pigment Red 53] | – | 187.2 | – | –
CCCCCCCCCCOS(=O)(=O)O [Sodium decyl sulfate] | – | 158.1 | – | –
COc1ccccc1C=O [2-Methoxybenzaldehyde] | – | – | – | collision cross section in nitrogen [3]: 124.1 Å²
O=C(Nc1ccc(Cl)cc1)Nc1ccc(Cl)c(Cl)c1 [Triclocarban] | – | 169 | – | –
C=C[C@@]1(C)CC(=O)[C@]2(O)[C@@]3(C)[C@@H](O)CCC(C)(C)[C@@H]3[C@H](O)[C@H](OC(C)=O)[C@@]2(C)O1 [Forskolin] | 194.3 | – | – | –
CNC(=C[N+](=O)[O-])NCCSCc1ccc(CN(C)C)o1 [Ranitidine] | 176.2 | 179.5 | 169 | collision cross section in nitrogen [4]: 169.2 Å²
CC(=O)OCCOCCOCCOC(C)=O [Triethylene glycol diacetate] | 151.3 | – | – | –
O=C(c1ccc(OCCN2CCCCC2)cc1)c1c(-c2ccc(O)cc2)sc2cc(O)ccc12 [Raloxifene hydrochloride] | 220.7 | 213.4 | 215.2 | collision cross section in nitrogen [4]: 215.7 Å²
CC(C)C[C@H](NC(=O)OCC1c2ccccc2-c2ccccc21)C(=O)O [N-(9-Fluorenylmethoxycarbonyl)-L-leucine] | 184.7 | – | – | –
O=C(O)CCCCC(=O)O [Hexanedioic acid] | – | 127.9 | – | –
CS(=O)(=O)c1ccc([C@@H](C[C@H]2CCC(=O)C2)C(=O)Nc2cnccn2)cc1Cl [Piragliatin] | – | 204.3 | – | –
CNC1(c2ccccc2Cl)CCCCC1=O (stereo unspecified) [Ketamine hydrochloride] | 158.8 | – | 149.4 | collision cross section in nitrogen [4]: 149.7 Å²
CCOP(=O)(CCP(=O)(OCC)OCC)OCC [Tetraethyl ethylenebisphosphonate] | 172.3 | – | 161.1 | –
OCCN1CCNCC1 [1-Piperazineethanol] | – | – | 125.6 | collision cross section in nitrogen [4]: 124.7 Å²
CCC(C)n1c(=O)[nH]c(C)c(Br)c1=O (stereo unspecified) [Bromacil] | – | 146.6 | – | –
CCCCc1c(C)nc(NCC)nc1O [Ethirimol] | 167.3 | 155.2 | 152 | collision cross section in nitrogen [4]: 152.1 Å²
O=[N+]([O-])c1ccc(O)cc1 [Sodium 4-nitrophenolate] | – | 120.5 | – | –
COC(=O)[C@H]1[C@H]2C[C@@H]3c4[nH]c5cc(OC)ccc5c4CCN3C[C@H]2C[C@@H](OC(=O)c2cc(OC)c(OC)c(OC)c2)[C@@H]1OC [Reserpine] | – | – | – | collision cross section in nitrogen [3]: 242.8 Å²
CCCCCCCCCCCCN(CCO)CCO [Lauryldiethanolamine] | 180.3 | – | 184.1 | collision cross section in nitrogen [4]: 183.7 Å²

Structure (SMILES) | collision cross section in nitrogen [1] [Å²] | collision cross section in nitrogen [2] [Å²] | collision cross section in nitrogen [5] [Å²] | other results
c1cc2ccc3cccc4ccc(c1)c2c34 [Pyrene] | – | – | – | collision cross section in nitrogen [3]: 136.3 Å²
CCc1ccccc1O [2-Ethylphenol] | – | 124.3 | – | –
C[C@@H]1C[C@H]2[C@@H]3CCC4=CC(=O)C=C[C@]4(C)[C@@]3(F)[C@@H](O)C[C@]2(C)[C@@]1(O)C(=O)COP(=O)(O)O [Dexamethasone sodium phosphate] | – | 201 | – | –
CCCN(CCC)c1c([N+](=O)[O-])cc(C(F)(F)F)cc1[N+](=O)[O-] [Trifluralin] | – | 169.2 | – | –
C=C(C)C(=O)OCC(O)COc1ccc(C(C)(C)c2ccc(OCC(O)COC(=O)C(=C)C)cc2)cc1 (stereo unspecified) [Bisphenol A glycidyl methacrylate] | 215.5 | – | – | –
CC1(C)O[C@@H]2C[C@H]3[C@@H]4C[C@H](F)C5=CC(=O)C=C[C@]5(C)[C@@]4(F)[C@@H](O)C[C@]3(C)[C@]2(C(=O)CO)O1 [Fluocinolone acetonide] | 226.8 | 194.2 | – | –
CC(C)C1(C)N=C(c2ncccc2C(=O)O)NC1=O (stereo unspecified) [Imazapyr] | 173.1 | 161.8 | 156.7 | collision cross section in nitrogen [4]: 156.5 Å²
O=C(O)C1CCC(C(=O)O)CC1 (stereo unspecified) [1,4-Cyclohexanedicarboxylic acid] | – | 136.1 | – | –
O=C(N[C@H]1CN2CCC1CC2)c1ccc2c(c1)OCCO2 | – | 177.1 | 175.7 | collision cross section in nitrogen [4]: 175.9 Å²
CCOC(=O)c1ccc([C@H]2CC[C@H](NC[C@H](O)COc3ccc(O)c(NS(C)(=O)=O)c3)CC2)cc1 | 230.3 | 225.6 | 231.4 | collision cross section in nitrogen [4]: 212.8 Å²
COc1cc(-c2ccc(N)c(OC)c2)ccc1N [C.I. Disperse Black 6 dihydrochloride] | – | – | 169.9 | collision cross section in nitrogen [4]: 169.7 Å²; collision cross section in nitrogen [3]: 156.1 Å²
CCCCNS(=O)(=O)c1ccc(C)cc1 [N-Butyl-p-toluenesulfonamide] | 169.3 | 155 | – | –
O=C(CC(C(=O)OC1CCCCC1)S(=O)(=O)O)OC1CCCCC1 (stereo unspecified) [Dicyclohexyl sodium sulfosuccinate] | – | 188.4 | – | –
CC1(C)OC[C@@H]2O[C@@]3(C(=O)O)OC(C)(C)O[C@H]3[C@@H]2O1 [Diprogulic acid] | 160.6 | 162.8 | – | –
CCOc1nc(NC)nc(NC(=O)NS(=O)(=O)c2ccccc2C(=O)OC)n1 [Ethametsulfuron-methyl] | – | 196 | 197.6 | –
OC[C@H]1O[C@@H]2O[C@H]3[C@H](O)[C@@H](O)[C@@H](O[C@H]4[C@H](O)[C@@H](O)[C@@H](O[C@H]5[C@H](O)[C@@H](O)[C@@H](O[C@H]6[C@H](O)[C@@H](O)[C@@H](O[C@H]7[C@H](O)[C@@H](O)[C@@H](O[C@H]8[C@H](O)[C@@H](O)[C@@H](O[C@H]9[C@H](O)[C@@H](O)[C@@H](O[C@H]1[C@H](O)[C@H]2O)O[C@@H]9CO)O[C@@H]8CO)O[C@@H]7CO)O[C@@H]6CO)O[C@@H]5CO)O[C@@H]4CO)O[C@@H]3CO [gamma-Cyclodextrin] | 318.1 | 314.1 | – | –
C[C@]12CC[C@@H]3c4ccc(O)cc4CC[C@H]3[C@@H]1CC[C@@H]2OC(=O)CCC1CCCC1 [Estradiol cypionate] | – | 220.4 | – | –
CCOP(=O)(SC(C)CC)N1CCSC1=O (stereo unspecified) [Fosthiazate] | 168.2 | – | – | –
CCCCNS(=O)(=O)c1ccccc1 [N-Butylbenzenesulfonamide] | – | 148.3 | – | –
CCOc1ccc(C(C)(C)COCc2cccc(Oc3ccccc3)c2)cc1 [Etofenprox] | 191 | – | – | –

Structure (SMILES) | collision cross section in nitrogen [1] [Å²] | collision cross section in nitrogen [2] [Å²] | collision cross section in nitrogen [5] [Å²] | other results
CN(C)C(=O)Nc1ccc(Cl)c(Cl)c1 [Diuron] | – | 147.5 | 150.9 | collision cross section in nitrogen [4]: 151.3 Å²
CCCC/C=C\CCCCCCCCCC=O [(Z)-11-Hexadecenal] | – | 163.6 | – | –
O=C1C=CC(=O)N1c1cccc(N2C(=O)C=CC2=O)c1 [N,N'-1,3-Phenylenedimaleimide] | – | 155 | – | collision cross section in nitrogen [4]: 157.9 Å²
CCN(Cc1cccc(S(=O)(=O)O)c1)c1ccc(C(=C2C=CC(=[N+](CC)Cc3cccc(S(=O)(=O)[O-])c3)C=C2)c2ccccc2)cc1 [FD&C Green No. 1] | 261.8 | 261.9 | 254.3 | –
Cc1ncc([C@@H](CCCCCCc2ccc3c(n2)NCCC3)CC(=O)O)cn1 | 199.7 | 199.2 | 192.4 | collision cross section in nitrogen [4]: 192.3 Å²
CN(C)NC(=O)CCC(=O)O [Daminozide] | 142.5 | 135.2 | – | –
CC[N+](CC)(CC)Cc1ccccc1 [Benzyl trialkyl ammonium compound C2:C2:C2 (BTAAC C2:C2:C2)] | – | – | – | collision cross section in nitrogen (ion source: ESI, ion mode: Positive, ion type: [M]+ (permanent cation)): 143.1 Å²
O=S(=O)(O)c1ccc2cc(O)ccc2c1 [Potassium 6-hydroxynaphthalene-2-sulfonate] | – | 148.2 | – | –
CCC(C)(CCC(C)C)C(=O)O (stereo unspecified) [Neodecanoic acid] | – | 145.2 | – | –
O=C(O)CCCc1c[nH]c2ccccc12 [Indole-3-butyric acid] | – | 154.8 | – | –
Cc1cc(C)c(S(=O)(=O)O)cc1N=Nc1cc(S(=O)(=O)O)c2ccccc2c1O [FD&C Red 4] | – | 208.6 | – | –
CNC(=O)Nc1ccc(Cl)c(Cl)c1 [N-(3,4-Dichlorophenyl)-N'-methylurea] | – | 142.4 | – | –
Nc1ccc(NCCO)c([N+](=O)[O-])c1 [HC Red 3] | – | – | 142.2 | collision cross section in nitrogen [4]: 141.6 Å²
O=S(=O)(O)C(F)(F)C(F)(F)C(F)(F)C(F)(F)C(F)(F)C(F)(F)C(F)(F)C(F)(F)F [Potassium perfluorooctanesulfonate] | – | 169 | – | –
CC(=O)O[C@]1(C(C)=O)CC[C@H]2[C@@H]3C=C(Cl)C4=CC(=O)[C@@H]5C[C@@H]5[C@]4(C)[C@H]3CC[C@@]21C [Cyproterone acetate] | – | 201.5 | 201.9 | –
CC1CN(c2ccccc2)NC1=O (stereo unspecified) [4-Methyl-1-phenylpyrazolidin-3-one] | – | – | – | collision cross section in nitrogen [3]: 138 Å²
CC(C)(C)c1cc(Cc2cc(C(C)(C)C)c(O)c(C(C)(C)C)c2)cc(C(C)(C)C)c1O [4,4'-Methylenebis(2,6-di-t-butylphenol)] | – | 221.2 | – | –
Clc1ccc(Nc2nnc(Cc3ccncc3)c3ccccc23)cc1 [Vatalanib dihydrochloride] | 191.4 | 188.9 | 187.6 | collision cross section in nitrogen [4]: 188 Å²
NC(=O)Cn1c(=O)cc(CCN2CCN(c3nccc4sccc34)CC2)c2ccc(F)cc21 [Trelanserin] | 207.9 | 203.8 | 202.8 | collision cross section in nitrogen [4]: 200.1 Å²

Source: the supplement of paper PMC12317010
